Results as given in ChEMBL document CHEMBL1201862, “PubChem BioAssay data set” (2004).
Active and inactive are the calls of the source.

How the values were obtained:
[1] = test system: HEK293; assay: inhibitors of LMP1-driven NF-kB reporter, dose response, cell-based, HEK293, luciferase, cherry-pick (AID 588343); assay type: functional; details: Homo sapiens
[2] = target: T1, Interleukin-8 (Homo sapiens, UniProt P10145); assay: Dose Response confirmation of uHTS small molecule hits for cystic fibrosis induced NFkb Inhibitors in a TNFa-induced IL8 counterscreen.; assay type: functional; details: read-out: IC50_Mean
T1 sequence (P10145 whole entry): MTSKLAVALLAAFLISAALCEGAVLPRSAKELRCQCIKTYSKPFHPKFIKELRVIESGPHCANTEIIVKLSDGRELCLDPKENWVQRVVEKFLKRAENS

[3] = target: T1, Interleukin-8; assay: Dose Response confirmation of uHTS small molecule hits for cystic fibrosis induced NFkb Inhibitors in a PAF-induced IL8 counterscreen.; assay type: functional; details: read-out: IC50_Mean
[4] = HepG2 cell cytotoxicity, cytotoxicity control, set 4 (AID 504910); assay type: functional; details: Mycobacterium tuberculosis
[5] = target: T2, Tyrosine-protein phosphatase non-receptor type 7 (Homo sapiens, UniProt P35236); assay type: functional
T2 sequence (P35236 whole entry): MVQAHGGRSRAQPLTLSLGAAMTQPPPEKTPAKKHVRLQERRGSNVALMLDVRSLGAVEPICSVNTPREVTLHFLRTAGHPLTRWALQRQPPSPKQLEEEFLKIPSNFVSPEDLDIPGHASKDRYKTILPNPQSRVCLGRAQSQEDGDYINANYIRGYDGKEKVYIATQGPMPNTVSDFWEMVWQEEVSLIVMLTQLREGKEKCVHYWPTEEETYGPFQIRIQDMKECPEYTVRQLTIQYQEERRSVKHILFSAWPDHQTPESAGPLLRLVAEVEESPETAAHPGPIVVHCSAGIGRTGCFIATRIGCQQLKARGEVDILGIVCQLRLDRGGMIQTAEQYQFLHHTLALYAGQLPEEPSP

[6] = target: Glyceraldehyde-3-phosphate dehydrogenase (Homo sapiens, UniProt P04406)
Chain of Glyceraldehyde-3-phosphate dehydrogenase (P04406 whole entry): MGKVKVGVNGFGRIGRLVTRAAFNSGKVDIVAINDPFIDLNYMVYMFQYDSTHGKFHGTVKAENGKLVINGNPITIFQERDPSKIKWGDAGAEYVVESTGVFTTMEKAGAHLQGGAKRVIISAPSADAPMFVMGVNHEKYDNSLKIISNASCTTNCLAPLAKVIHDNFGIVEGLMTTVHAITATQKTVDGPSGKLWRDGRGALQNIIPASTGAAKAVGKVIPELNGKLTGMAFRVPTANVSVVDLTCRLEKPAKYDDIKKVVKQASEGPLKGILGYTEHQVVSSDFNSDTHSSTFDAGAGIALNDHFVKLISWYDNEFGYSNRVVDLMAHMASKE

[7] = target: Heat shock cognate 71 kDa protein (Homo sapiens, UniProt P11142); assay: In Vitro Hsc70 Dose Response Fluorescence Polarization Assay. [Related pubchem assays: 1072 ]
[8] = target: Large T antigen (Simian virus 40, UniProt P03070); assay type: functional, Betapolyomavirus macacae;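 also: Confirmatory-stage PubChem screen for compounds that inhibit SV40 T antigen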
Chain of Large T antigen (P03070 whole entry): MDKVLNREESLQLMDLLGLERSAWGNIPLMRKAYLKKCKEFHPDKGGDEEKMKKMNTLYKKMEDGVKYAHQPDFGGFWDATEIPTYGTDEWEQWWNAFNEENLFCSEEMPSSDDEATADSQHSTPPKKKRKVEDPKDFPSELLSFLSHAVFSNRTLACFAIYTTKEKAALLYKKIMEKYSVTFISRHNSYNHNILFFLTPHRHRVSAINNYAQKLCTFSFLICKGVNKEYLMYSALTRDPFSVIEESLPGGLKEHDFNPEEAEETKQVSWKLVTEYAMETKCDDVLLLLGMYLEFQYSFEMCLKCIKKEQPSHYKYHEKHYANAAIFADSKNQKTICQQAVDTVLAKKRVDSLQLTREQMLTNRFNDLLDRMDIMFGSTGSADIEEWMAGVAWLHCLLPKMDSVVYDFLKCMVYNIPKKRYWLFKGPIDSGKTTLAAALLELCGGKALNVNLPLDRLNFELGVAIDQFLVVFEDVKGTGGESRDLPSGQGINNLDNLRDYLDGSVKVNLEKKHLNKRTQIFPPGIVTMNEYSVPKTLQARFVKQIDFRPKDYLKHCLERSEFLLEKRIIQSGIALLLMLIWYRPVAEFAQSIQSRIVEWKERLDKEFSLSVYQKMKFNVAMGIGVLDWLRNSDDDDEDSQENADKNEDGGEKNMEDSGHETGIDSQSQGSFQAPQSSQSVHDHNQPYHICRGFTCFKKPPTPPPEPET

[9] = target: Heat shock 70 kDa protein 1A (Homo sapiens, UniProt P0DMV8); assay: Hsp70 inhibitors, SAR follow-up, biochemical, fluorescence polarization (AID 1072)
Chain of Heat shock 70 kDa protein 1A (P0DMV8 whole entry): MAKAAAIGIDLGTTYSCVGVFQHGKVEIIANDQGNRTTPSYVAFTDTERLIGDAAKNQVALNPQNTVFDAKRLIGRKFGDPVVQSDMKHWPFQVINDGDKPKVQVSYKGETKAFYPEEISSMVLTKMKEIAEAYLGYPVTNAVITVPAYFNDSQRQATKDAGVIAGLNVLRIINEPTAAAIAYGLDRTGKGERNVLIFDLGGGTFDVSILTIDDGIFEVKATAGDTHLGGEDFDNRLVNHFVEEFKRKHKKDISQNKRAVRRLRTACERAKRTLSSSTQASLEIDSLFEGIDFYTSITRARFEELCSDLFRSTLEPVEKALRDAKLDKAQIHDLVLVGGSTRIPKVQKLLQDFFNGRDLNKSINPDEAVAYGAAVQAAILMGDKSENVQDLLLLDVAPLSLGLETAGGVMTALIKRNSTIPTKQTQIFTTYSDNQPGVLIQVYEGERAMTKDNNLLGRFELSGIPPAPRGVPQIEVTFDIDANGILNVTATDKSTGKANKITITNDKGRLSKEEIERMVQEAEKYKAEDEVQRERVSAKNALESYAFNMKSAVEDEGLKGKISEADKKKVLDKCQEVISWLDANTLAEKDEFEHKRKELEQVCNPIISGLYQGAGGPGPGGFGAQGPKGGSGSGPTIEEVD

[10] = target: T3, Dual specificity protein phosphatase 6 (Rattus norvegicus, UniProt Q64346)
T3 sequence (Q64346 whole entry): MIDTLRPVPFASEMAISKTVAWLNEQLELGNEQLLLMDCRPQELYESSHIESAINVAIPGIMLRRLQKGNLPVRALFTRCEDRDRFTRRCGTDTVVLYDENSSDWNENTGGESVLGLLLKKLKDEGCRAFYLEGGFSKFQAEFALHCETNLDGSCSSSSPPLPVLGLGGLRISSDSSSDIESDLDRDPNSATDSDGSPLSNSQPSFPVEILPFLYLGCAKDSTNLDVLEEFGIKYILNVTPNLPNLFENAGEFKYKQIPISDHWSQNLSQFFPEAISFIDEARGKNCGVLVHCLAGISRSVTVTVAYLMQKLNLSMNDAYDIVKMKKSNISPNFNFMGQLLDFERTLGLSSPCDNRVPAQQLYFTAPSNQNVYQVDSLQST

[11] = target: T3, Dual specificity protein phosphatase 6; assay: MKP-3 phosphatase inhibitors, primary screen, biochemical, rat enzyme, in vitro (AID 425)
[12] = test system: HeLa; assay: HeLa cell cytotoxicity, dose response, cytotoxicity control, 24 h, cherry-picked samples (AID 504726); assay type: functional, cell-based; details: Homo sapiens;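 also: potency for cytotoxicity as loss of luminescence signal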
[13] = target: ORF 73 (Human herpesvirus 8, UniProt O40947); assay: inhibitors of C-LANA binding to LBS DNA, dose response, biochemical, fluorescence polarization, cherry-picked samples (AID 504725); design: species or system Human gammaherpesvirus 8;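 also: fluorescence polarization of a labeled DNA duplex reporting LANA DNA binding; potency is for inhibitors that block LANA binding to the DNA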
[14] = target: Eukaryotic translation initiation factor 4E (Mus musculus, UniProt P63073); assay: eIF4E–eIF4G protein interaction inhibitors, dose response, biochemical, TR-FRET (AID 855); assay type: functional;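 also: potency for disrupting eIF4E binding to eIF4GI seen as loss of FRET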
Chain of Eukaryotic translation initiation factor 4E (P63073 whole entry): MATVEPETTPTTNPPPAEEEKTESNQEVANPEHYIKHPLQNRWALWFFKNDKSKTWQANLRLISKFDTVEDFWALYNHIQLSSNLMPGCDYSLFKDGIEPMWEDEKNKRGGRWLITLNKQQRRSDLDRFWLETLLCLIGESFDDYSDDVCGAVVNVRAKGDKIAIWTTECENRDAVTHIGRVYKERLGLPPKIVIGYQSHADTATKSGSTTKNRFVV

[15] = target: T4, Lysine-specific demethylase 4C (Homo sapiens, UniProt Q9H3R0); assay: GASC-1 (JMJD2C) histone demethylase inhibitors, dose response, biochemical, DELFIA europium, cherry-picked samples (AID 488835); assay type: functional
T4 sequence (Q9H3R0 whole entry): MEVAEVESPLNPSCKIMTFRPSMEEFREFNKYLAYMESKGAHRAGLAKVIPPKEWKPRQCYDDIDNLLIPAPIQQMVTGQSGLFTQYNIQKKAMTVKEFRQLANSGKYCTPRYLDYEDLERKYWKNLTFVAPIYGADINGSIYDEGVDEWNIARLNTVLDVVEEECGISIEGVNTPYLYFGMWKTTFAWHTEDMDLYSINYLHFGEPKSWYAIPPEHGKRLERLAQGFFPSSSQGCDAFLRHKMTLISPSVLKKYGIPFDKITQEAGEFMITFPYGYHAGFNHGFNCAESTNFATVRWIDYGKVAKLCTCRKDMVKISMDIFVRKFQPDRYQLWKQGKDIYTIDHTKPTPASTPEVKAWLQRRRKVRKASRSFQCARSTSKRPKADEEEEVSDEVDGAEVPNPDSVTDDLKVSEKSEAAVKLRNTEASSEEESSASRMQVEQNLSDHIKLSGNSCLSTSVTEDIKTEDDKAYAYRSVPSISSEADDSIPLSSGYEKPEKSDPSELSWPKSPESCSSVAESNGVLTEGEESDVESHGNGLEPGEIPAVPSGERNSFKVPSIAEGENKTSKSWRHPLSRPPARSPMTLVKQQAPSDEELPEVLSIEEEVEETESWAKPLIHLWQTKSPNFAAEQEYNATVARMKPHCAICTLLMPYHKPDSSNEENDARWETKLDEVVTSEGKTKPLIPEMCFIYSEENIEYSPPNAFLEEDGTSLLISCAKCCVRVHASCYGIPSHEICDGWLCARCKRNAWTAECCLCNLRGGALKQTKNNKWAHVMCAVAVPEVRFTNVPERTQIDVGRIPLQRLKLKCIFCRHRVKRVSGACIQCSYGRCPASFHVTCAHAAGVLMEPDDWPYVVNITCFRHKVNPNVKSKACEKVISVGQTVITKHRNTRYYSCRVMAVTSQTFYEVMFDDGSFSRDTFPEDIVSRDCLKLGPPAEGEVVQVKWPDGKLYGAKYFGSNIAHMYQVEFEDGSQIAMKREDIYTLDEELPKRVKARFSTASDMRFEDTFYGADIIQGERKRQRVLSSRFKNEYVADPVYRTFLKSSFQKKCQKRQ

[16] = target: T3, Dual specificity protein phosphatase 6; assay type: functional
[17] = target: DNA (cytosine-5)-methyltransferase 1 (Homo sapiens, UniProt P26358); assay: DNMT1 methyltransferase inhibitors, confirmation, biochemical, fluorescent molecular beacon (AID 602386); assay type: functional
Chain of DNA (cytosine-5)-methyltransferase 1 (P26358 whole entry): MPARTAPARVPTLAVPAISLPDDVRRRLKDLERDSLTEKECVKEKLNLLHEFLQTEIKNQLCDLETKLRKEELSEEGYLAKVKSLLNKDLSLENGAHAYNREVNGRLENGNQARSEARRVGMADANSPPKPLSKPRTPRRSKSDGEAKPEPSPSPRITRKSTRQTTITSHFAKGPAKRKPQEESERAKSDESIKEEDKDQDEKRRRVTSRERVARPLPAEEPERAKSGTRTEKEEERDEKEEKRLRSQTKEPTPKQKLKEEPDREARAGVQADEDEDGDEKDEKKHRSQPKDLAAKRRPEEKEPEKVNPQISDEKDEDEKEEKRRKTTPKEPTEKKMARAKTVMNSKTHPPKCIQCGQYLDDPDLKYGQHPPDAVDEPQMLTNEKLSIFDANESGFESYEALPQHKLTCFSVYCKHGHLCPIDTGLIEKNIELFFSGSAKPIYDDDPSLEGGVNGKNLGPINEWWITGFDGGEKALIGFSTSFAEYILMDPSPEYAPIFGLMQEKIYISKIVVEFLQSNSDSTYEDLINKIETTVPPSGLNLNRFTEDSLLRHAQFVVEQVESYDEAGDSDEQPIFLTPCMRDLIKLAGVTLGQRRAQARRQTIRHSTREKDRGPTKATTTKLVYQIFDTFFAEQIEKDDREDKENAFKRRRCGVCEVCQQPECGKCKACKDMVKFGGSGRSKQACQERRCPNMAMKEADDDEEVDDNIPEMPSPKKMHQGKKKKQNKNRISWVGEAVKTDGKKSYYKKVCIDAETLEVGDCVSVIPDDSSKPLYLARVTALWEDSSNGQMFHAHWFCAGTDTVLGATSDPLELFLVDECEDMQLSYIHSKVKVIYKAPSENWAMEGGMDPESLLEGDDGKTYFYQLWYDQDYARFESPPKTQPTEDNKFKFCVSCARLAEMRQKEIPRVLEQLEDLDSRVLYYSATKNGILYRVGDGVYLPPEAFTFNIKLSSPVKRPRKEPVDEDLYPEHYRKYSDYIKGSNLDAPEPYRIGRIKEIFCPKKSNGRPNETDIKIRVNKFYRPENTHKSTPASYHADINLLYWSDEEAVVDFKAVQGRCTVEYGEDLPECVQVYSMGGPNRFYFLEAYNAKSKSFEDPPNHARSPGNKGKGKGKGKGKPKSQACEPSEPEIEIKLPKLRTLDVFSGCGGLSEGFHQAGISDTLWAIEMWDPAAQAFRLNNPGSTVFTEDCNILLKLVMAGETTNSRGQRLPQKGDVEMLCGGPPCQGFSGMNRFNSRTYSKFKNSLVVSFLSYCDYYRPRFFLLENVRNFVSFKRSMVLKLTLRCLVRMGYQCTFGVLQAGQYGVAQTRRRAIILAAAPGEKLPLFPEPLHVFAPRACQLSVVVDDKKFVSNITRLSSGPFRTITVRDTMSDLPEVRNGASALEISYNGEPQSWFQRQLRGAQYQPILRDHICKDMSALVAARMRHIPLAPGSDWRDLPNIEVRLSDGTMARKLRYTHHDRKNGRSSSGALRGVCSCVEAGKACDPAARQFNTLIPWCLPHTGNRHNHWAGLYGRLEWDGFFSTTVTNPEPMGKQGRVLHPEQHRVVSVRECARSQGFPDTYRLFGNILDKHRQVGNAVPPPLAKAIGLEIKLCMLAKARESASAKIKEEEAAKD

[18] = target: 26S proteasome non-ATPase regulatory subunit 14 (Homo sapiens, UniProt O00487); assay: inhibition of proteasome subunit RPN11 – biochemical, fluorescence polarization, uHTS hits, confirmation (AID 602368); assay type: functional
Chain of 26S proteasome non-ATPase regulatory subunit 14 (O00487 whole entry): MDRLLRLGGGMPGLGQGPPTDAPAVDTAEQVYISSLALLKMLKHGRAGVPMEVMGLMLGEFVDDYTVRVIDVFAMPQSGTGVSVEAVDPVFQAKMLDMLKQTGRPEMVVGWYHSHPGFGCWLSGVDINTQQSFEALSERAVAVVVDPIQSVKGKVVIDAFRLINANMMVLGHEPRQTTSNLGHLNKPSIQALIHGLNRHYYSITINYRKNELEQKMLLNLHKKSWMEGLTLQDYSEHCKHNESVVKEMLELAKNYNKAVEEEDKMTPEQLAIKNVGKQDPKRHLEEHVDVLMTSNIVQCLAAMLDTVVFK

[19] = target: 72 kDa type IV collagenase (Homo sapiens, UniProt P08253); assay: Dose Response validation of uHTS RPN11 inhibitor hits using a MMP-2 Fluorescence assay.; assay type: functional
Chain of 72 kDa type IV collagenase (P08253 whole entry): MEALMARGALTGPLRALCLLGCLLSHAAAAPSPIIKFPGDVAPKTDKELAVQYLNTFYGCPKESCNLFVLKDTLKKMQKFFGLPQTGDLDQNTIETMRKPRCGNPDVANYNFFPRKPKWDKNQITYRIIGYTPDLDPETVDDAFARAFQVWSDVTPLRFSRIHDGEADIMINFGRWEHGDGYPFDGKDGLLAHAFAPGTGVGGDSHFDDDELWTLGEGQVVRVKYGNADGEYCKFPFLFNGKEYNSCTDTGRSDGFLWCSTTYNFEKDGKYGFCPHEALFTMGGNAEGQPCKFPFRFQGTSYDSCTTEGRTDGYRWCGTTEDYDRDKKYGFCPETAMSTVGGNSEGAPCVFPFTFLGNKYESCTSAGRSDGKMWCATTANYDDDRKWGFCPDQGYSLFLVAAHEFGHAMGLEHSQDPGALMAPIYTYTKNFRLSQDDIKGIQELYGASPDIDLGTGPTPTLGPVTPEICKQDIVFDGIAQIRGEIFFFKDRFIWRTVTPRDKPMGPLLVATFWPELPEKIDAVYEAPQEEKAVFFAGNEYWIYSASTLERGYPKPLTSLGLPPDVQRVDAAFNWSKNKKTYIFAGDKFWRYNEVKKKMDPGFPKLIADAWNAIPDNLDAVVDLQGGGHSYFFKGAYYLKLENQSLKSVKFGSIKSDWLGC

[20] = target: Prothrombin (Bos taurus, UniProt P00735); assay: thrombin inhibition, dose response, biochemical, fluorescence polarization, uHTS hits (AID 602369); assay type: functional
[21] = target: T5, High affinity choline transporter 1 (Homo sapiens, UniProt Q9GZV3); assay: CHT inhibitors, dose response, cell-based, 5-point CRC, membrane potential dye (AID 504840); assay type: functional
T5 sequence (Q9GZV3 whole entry): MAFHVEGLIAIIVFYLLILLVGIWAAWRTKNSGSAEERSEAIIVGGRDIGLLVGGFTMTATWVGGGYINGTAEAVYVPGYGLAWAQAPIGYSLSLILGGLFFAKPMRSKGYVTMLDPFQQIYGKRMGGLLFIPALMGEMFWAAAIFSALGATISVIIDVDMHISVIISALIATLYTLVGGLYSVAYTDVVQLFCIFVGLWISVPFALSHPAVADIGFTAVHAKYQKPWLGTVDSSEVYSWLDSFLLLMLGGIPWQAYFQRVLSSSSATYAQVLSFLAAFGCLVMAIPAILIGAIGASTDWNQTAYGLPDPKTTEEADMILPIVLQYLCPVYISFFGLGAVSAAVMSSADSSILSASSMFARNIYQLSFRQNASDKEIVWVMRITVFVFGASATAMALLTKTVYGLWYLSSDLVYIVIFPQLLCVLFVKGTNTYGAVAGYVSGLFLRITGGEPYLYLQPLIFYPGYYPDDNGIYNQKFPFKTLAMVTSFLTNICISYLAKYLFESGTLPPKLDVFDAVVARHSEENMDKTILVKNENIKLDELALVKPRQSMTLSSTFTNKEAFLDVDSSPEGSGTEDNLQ

[22] = target: T5, High affinity choline transporter 1; assay: CHT inhibitors, dose response, cell-based, 10-point CRC, membrane potential dye (AID 588401); assay type: functional;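 also: membrane potential dye fluorescence of choline-evoked depolarization via CHT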
[23] = target: T5, High affinity choline transporter 1; assay: inhibitors of CHT choline uptake, dose response, cell-based, 3H-choline uptake, CHT LV-AA trafficking mutant, CRC (AID 602208); assay type: functional

Nc1ncnc(N2CCc3ccccc32)c1[N+](=O)[O-]
AC50 [1]: 4.52 µM (active) | IC50 [2]: 40.1 µM (inactive) | IC50 [3]: > 79 µM (inactive)

Cc1nc(SCC(=O)NC2CCCCC2)nc(O)c1C
CC50 [4]: > 50 µM (active)

O=C1CC(=O)N(Cc2ccco2)C(=O)N1
IC50 [5]: 5.11 µM (active) | IC50 [6]: > 100 µM (not active) | IC50 [7]: > 100 µM (not active) | IC50 [8]: 76.3 µM (active) | IC50 [9]: > 100 µM (not active) | IC50 [10]: > 100 µM (inactive) | IC50 [11]: > 10 µM (not active) | AC50 [12]: > 350 µM (inactive) | AC50 [13]: 132 µM (active) | IC50 [14]: > 64 µM (inactive) | AC50 [15]: 11.2 µM (active) | IC50 [16]: > 100 µM (inactive) | IC50 [17]: 1.58 µM (active) | IC50 [18]: 9.99 µM (active) | IC50 [19]: 1.04 µM (active) | IC50 [20]: 59.1 µM (active)

COc1ccc(C(=O)NC2CCc3ccccc32)cc1OC1CCN(C(C)C)CC1 (stereo not drawn)
IC50 [21]: 5.55 µM (active) | IC50 [22]: 3.36 µM (active) | IC50 [23]: 2.12 µM (active)
